Columns and labels:
[1] = test system: nutsedge, yellow; test: Test C postemergence; type: in vivo, Cyperus esculentus; conditions: for Plant response rating (scale of 0 to 100 where 0 is no effect and 100 is complete control), Nutsedge, Yellow: Postemergence, 31 g ai/ha, visually evaluated after 13 to 15 days; for Nutsedge, Yellow plant response rating / Plant response rating, Nutsedge, Yellow: postemergence; for Nutsedge, Yellow plant response rating: 62 g ai/ha, scale 0 to 100
Method in brief: (§1)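 In this greenhouse assay, seeded soil (loam plus sand) or emerged seedlings in peat-vermiculite medium were treated with formulated compound. Roughly two weeks later (13–15 days), each species was scored visually relative to controls, from 0 for no effect to 100 for complete control.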

[2] = test system: galium; test: Test C postemergence; type: in vivo, Galium aparine; conditions: for Plant response rating (scale of 0 to 100 where 0 is no effect and 100 is complete control), Galium: Postemergence, 31 g ai/ha, visually evaluated after 13 to 15 days; for Galium plant response rating / Plant response rating, Galium: postemergence; for Galium plant response rating: 62 g ai/ha, scale 0 to 100
Method in brief: as §1

[3] = test system: rice; test: Test B flood; type: in vivo, Oryza sativa; conditions: 250 g ai/ha, visual rating on 0 to 100 scale (0 no effect, 100 complete control), 13 to 15 days
Method in brief: (§2)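 At two leaves, seedlings received the test compound via the paddy water, pots having been flooded 3 cm over the soil surface and kept so. Greenhouse-held for 13 to 15 days, then judged by eye against controls on a scale running 0 (no effect) to 100 (complete control).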

[4] = test system: foxtail, giant; test: Test A preemergence; type: in vivo, Setaria faberii; conditions: preemergence; for Foxtail, Giant plant response rating (0 to 100 scale): 125 g ai/ha, visual injury approx. 10 days after treatment; for Foxtail, Giant plant response rating: 500 g ai/ha, visual injury after approx. 10 days, 0 to 100 scale (0 no effect, 100 complete control)
Method in brief: (§3)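 Scoring was visual, on a scale where 100 means complete control and 0 means no effect, comparing treated with untreated plants around 10 days post-application. Compounds in surfactant-containing non-phytotoxic solvent were sprayed onto soil preemergence or onto one- to two-leaf seedlings (2–10 cm) postemergence.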

[5] = test system: pigweed; test: Test C preemergence; type: in vivo, Amaranthus retroflexus
Method in brief: as §1

[6] = test system: barnyardgrass; test: Test B flood; type: in vivo, Echinochloa crus-galli; conditions: 250 g ai/ha, visual rating on 0 to 100 scale (0 no effect, 100 complete control), 13 to 15 days
Method in brief: as §2

[7] = test system: crabgrass, large; test: Test C postemergence; type: in vivo, Digitaria sanguinalis; conditions: for Plant response rating (scale of 0 to 100 where 0 is no effect and 100 is complete control), Crabgrass, Large: Postemergence, 31 g ai/ha, visually evaluated after 13 to 15 days; for Crabgrass, Large plant response rating / Plant response rating, Crabgrass, Large: postemergence; for Crabgrass, Large plant response rating: 62 g ai/ha, scale 0 to 100
Method in brief: as §1

[8] = test system: barnyardgrass; test: Test A postemergence; type: in vivo, Echinochloa crus-galli
Method in brief: as §3

[9] = test system: foxtail, giant; test: Test A postemergence; type: in vivo, Setaria faberii
Method in brief: as §3

[10] = test system: corn; test: Test A preemergence; type: in vivo, Zea mays; conditions: preemergence; for Corn plant response rating (0 to 100 scale): 125 g ai/ha, visual injury approx. 10 days after treatment; for Corn plant response rating: 500 g ai/ha, visual injury after approx. 10 days, 0 to 100 scale (0 no effect, 100 complete control)
Method in brief: as §3

[11] = test system: morningglory; test: Test A postemergence; type: in vivo, Ipomoea spp.
Method in brief: as §3

[12] = test system: crabgrass, large; test: Test A postemergence; type: in vivo, Digitaria sanguinalis
Method in brief: as §3

[13] = test system: morningglory; test: Test C preemergence; type: in vivo, Ipomoea coccinea
Method in brief: as §1

[14] = test system: barnyardgrass; test: Test C preemergence; type: in vivo, Echinochloa crus-galli; conditions: preemergence; for Plant response rating, Barnyardgrass: 125 g ai/ha, scale 0 to 100, 0 = no effect, 100 = complete control
Method in brief: as §1

[15] = 250 g ai/ha, scale 0 to 100 (0 no effect, 100 complete control)
[16] = 125 g ai/ha, scale 0 to 100, 0 no effect, 100 complete control
[17] = preemergence, 31 g ai/ha, visual rating, scale 0 to 100 (0 no effect, 100 complete control), 13 to 15 days
[18] = preemergence, 62 g ai/ha, scale 0 to 100 (0 no effect, 100 complete control), 13 to 15 days
[19] = preemergence, 125 g ai/ha, 13 to 15 days, scale 0 to 100, 0 = no effect, 100 = complete control
[20] = preemergence, 250 g ai/ha, scale 0 to 100, 0 is no effect, 100 is complete control
[21] = Postemergence, 500 g ai/ha, 0 to 100 scale (0 no effect, 100 complete control)
[22] = postemergence, 125 g ai/ha, about 10 days, visual rating on 0 to 100 scale (0 no effect, 100 complete control)
[23] = 31 g ai/ha, visual rating, scale 0 to 100 (0 no effect, 100 complete control), 13 to 15 days
[24] = 62 g ai/ha, scale 0 to 100 (0 no effect, 100 complete control), 13 to 15 days
[25] = 250 g ai/ha, scale 0 to 100, 0 is no effect, 100 is complete control
[26] = Preemergence, rate head not shown (block before 16 g ai/ha), scale 0 to 100
[27] = Postemergence, 125 g ai/ha, 0 to 100 scale, 0 no effect, 100 complete control

Structure (SMILES)	Plant response rating (scale of 0 to 100 where 0 is no effect and 100 is complete control), Nutsedge, Yellow [1]	Nutsedge, Yellow plant response rating [1]	Plant response rating, Nutsedge, Yellow [1, 15]	Plant response rating, Nutsedge, Yellow [1, 16]	Plant response rating (scale of 0 to 100 where 0 is no effect and 100 is complete control), Galium [2]	Galium plant response rating [2]	Plant response rating, Galium [2, 15]	Plant response rating, Galium [2, 16]	Plant response rating, Rice [3]	Foxtail, Giant plant response rating (0 to 100 scale) [4]	Foxtail, Giant plant response rating [4]	Pigweed plant response rating [5, 18]	Plant response rating, Pigweed [5, 19]	Pigweed plant response rating [5, 20]	Plant response rating, Barnyardgrass [6]	Plant response rating (scale of 0 to 100 where 0 is no effect and 100 is complete control), Crabgrass, Large [7]	Crabgrass, Large plant response rating [7]	Plant response rating, Crabgrass, Large [7, 15]	Plant response rating, Crabgrass, Large [7, 16]	Barnyardgrass plant response rating [8, 21]	also measured
O=C(NC1CC1)c1cc(CCCl)n(Cc2ccnc(C(F)(F)F)c2)n1 [Compound 144]	10	5	35	5	40	55	85	70	0	100	100	100	100	100	30	10	10	55	10	90	Pigweed plant response rating [5, 17]: 98; Barnyardgrass plant response rating [8, 22]: 70; Foxtail, Giant plant response rating [9, 21]: 90; Foxtail, Giant plant response rating [9, 22]: 90; Corn plant response rating (0 to 100 scale) [10]: 10; Corn plant response rating [10]: 80; Morningglory plant response rating [11, 21]: 90; Morningglory plant response rating [11, 22]: 80; Crabgrass, Large plant response rating [12, 21]: 90; Crabgrass, Large plant response rating [12, 22]: 90; Morningglory plant response rating [13, 17]: 60; Morningglory plant response rating [13, 18]: 100; Plant response rating, Morningglory [13, 19]: 100; Morningglory plant response rating [13, 20]: 100; Barnyardgrass plant response rating [14, 23]: 75; Barnyardgrass plant response rating [14, 24]: 98; Plant response rating, Barnyardgrass ([14]; 13 to 15 days): 100; Barnyardgrass plant response rating [14, 25]: 100
CCc1cc(C(=O)NC2CC2)nn1Cc1ccnc(Br)c1 [Compound 220]	0	0	10	40	50	40	80	60	15	100	100	100	100	100	0	5	5	10	5	100	Plant response rating, Pigweed [5, 26]: 65; Barnyardgrass plant response rating [8, 27]: 80; Foxtail, Giant plant response rating [9, 27]: 90; Foxtail, Giant plant response rating [9, 21]: 100; Corn plant response rating (0 to 100 scale) [10]: 0; Corn plant response rating [10]: 90; Morningglory plant response rating [11, 27]: 50; Morningglory plant response rating [11, 21]: 100; Crabgrass, Large plant response rating [12, 27]: 90; Crabgrass, Large plant response rating [12, 21]: 100; Plant response rating, Morningglory [13, 26]: 0; Morningglory plant response rating [13, 18]: 5; Plant response rating, Morningglory [13, 19]: 65; Morningglory plant response rating [13, 20]: 75; Barnyardgrass plant response rating [14, 23]: 0; Barnyardgrass plant response rating [14, 24]: 15; Plant response rating, Barnyardgrass ([14]; 13 to 15 days): 35; Barnyardgrass plant response rating [14, 25]: 95
CCOc1cc(C(=O)NOC(C)C)nn1Cc1ccnc(C(F)(F)F)c1 [Compound 153]	5	5	15	20	50	60	80	70	40	100	100	95	100	98	45	5	10	45	15	100	Pigweed plant response rating [5, 17]: 20; Barnyardgrass plant response rating [8, 22]: 100; Foxtail, Giant plant response rating [9, 21]: 100; Foxtail, Giant plant response rating [9, 22]: 100; Corn plant response rating (0 to 100 scale) [10]: 90; Corn plant response rating [10]: 100; Morningglory plant response rating [11, 21]: 100; Morningglory plant response rating [11, 22]: 100; Crabgrass, Large plant response rating [12, 21]: 100; Crabgrass, Large plant response rating [12, 22]: 100; Morningglory plant response rating [13, 17]: 30; Morningglory plant response rating [13, 18]: 80; Plant response rating, Morningglory [13, 19]: 100; Morningglory plant response rating [13, 20]: 100; Barnyardgrass plant response rating [14, 23]: 15; Barnyardgrass plant response rating [14, 24]: 95; Plant response rating, Barnyardgrass ([14]; 13 to 15 days): 100; Barnyardgrass plant response rating [14, 25]: 100
